Test results: US20250090174A1, “LEFT ATRIAL APPENDAGE CLOSURE DEVICE WITH DRUG-ELUTING COMPOSITION” (BOSTON SCIENTIFIC SCIMED, INC., priority 2023, published 2025)

Tested on: heparinized bovine blood
Experiment: In-vitro clot weight on drug coated PET fabric disks in heparinized bovine blood
Conditions: PVDF-HFP/drug 90/10 dip coated PET disks, 37° C., ACT about 190, FIG. 18
Description: A solution of PVDF-HFP and DOAC (direct oral anticoagulant) was prepared in 80/20 acetone/DMSO (wt/wt). The PVDF-HFP drug ratio was 90/10 (wt/wt) and the solution solids was 0.7%. […] diameter WM PET fabric disks were dip coated into the polymer/drug solution at a dip speed of […]. The coated disks were dried for […] at 125° C. in a convection oven. The drug coated disks and PVDF-HFP only control disks were placed in cups containing heparinized bovine blood adjusted to an ACT of about 190 using protamine. The cups were placed on an orbital shaker incubator at 37° C. and disks were removed at various time points and imaged. The disks were then dried and weighed to determine clot wt.

SMILES	thrombus (clot weight) compared to the PVDF-HFP coated control
COc1ccc(-n2nc(C(N)=O)c3c2C(=O)N(c2ccc(N4CCCCC4=O)cc2)CC3)cc1 [Apixaban]	significantly less thrombus
O=C(NC[C@H]1CN(c2ccc(N3CCOCC3=O)cc2)C(=O)O1)c1ccc(Cl)s1 [Rivaroxaban, 5-Chloro-N-({(5S)-2-oxo-3-[4-(3-oxo-4-morpholinyl)phenyl]-1,3-oxazolidin-5-yl}methyl)-2-thiophenecarboxamide]	significantly less thrombus
